Here are results for 2 compounds from publication PMC3800558 (Insect biochemistry and molecular biology, 2013).

One assay has as its target T1, CquiOR37 (Culex quinquefasciatus, UniProt W0HHK8).
T1 sequence (W0HHK8 1-385): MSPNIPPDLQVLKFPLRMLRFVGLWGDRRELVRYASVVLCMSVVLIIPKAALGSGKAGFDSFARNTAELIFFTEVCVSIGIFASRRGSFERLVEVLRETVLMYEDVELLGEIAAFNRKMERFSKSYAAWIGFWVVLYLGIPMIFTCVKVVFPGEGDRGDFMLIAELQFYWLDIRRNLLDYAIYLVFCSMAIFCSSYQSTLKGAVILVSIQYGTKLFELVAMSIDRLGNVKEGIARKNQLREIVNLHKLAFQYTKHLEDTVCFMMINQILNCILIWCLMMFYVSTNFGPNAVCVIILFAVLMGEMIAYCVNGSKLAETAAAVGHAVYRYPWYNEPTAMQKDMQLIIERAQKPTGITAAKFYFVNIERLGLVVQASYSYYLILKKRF
T1 sequence (Q309I4 1-480 partner): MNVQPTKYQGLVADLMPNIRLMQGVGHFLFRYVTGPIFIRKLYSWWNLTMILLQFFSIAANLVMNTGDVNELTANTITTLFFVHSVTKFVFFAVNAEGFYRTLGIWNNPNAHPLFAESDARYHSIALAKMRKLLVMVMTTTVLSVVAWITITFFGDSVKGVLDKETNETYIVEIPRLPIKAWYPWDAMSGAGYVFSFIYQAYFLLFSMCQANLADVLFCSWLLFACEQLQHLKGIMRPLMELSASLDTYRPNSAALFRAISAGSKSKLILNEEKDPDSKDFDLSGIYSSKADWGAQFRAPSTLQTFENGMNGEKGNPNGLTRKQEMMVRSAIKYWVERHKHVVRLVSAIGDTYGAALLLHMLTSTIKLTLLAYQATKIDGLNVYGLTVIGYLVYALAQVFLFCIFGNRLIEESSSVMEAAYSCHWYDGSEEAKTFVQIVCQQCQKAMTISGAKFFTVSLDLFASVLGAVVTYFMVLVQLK
The assay is classed as cell-based.

The target of a further assay is T2, CquiOR99 (Culex quinquefasciatus, UniProt W0HIQ7).
T2 sequence (W0HIQ7 1-389): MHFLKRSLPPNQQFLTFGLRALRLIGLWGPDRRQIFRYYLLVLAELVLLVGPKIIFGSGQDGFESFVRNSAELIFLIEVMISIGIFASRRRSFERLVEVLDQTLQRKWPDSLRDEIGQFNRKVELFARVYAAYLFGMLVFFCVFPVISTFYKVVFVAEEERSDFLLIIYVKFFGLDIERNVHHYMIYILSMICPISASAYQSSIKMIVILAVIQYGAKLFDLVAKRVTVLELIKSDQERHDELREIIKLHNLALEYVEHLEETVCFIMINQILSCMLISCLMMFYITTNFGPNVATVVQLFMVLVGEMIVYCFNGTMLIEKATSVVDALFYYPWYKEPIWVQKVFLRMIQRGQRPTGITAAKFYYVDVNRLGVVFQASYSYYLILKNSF
T2 sequence (Q309I4 1-480 partner): T1 sequence (Q309I4 1-480 partner)
The assay is classed as cell-based.

SMILES strings stand for the structures.

Take `CCc1ccc(O)cc1` [4-ethylphenol]: the EC50 at CquiOR37 worked out at 18.2 µM; on CquiOR99 it was 0.74 µM.

Regarding `Cc1ccc(O)cc1` [4-methylphenol], the EC50 on CquiOR37 amounted to 6.4 µM; at CquiOR99, 14.4 µM.

By EC50 is commonly meant the midpoint of the concentration-response curve. A higher EC50 goes with a less potent agent.
